Data on one molecule can be found in US20040234610A1, “Medical device and method for inhalation of aerosolized drug with heliox” (priority 2001, published 2004).

Each structure is given as a SMILES string.

The assay concerns adult patients with severe acute exacerbation of asthma. As to the kind of experiment: Randomized study, albuterol nebulized with heliox 80:20 vs oxygen (control) through semi-closed system, FEV1 spirometry. It is filed as in vivo, human. From the text: Forty-five patients were randomized to receive albuterol nebulized with oxygen (control) versus heliox. At baseline, demographics, outpatient asthma medications, vital signs, oxygen saturation and forced expiratory volume in one second (FEV1) were not different between the two groups. Three consecutive albuterol treatments were given to each group.
The study subjects were adult patients who presented to the Emergency Department at the University of Chicago Medical Center for a severe acute exacerbation of asthma. The study was approved by the Institutional Review Board and all patients enrolled gave written informed consent before beginning the study. Patients 50 years of age or under meeting American Thoracic Society criteria for the diagnosis of asthma were eligible. To assure that only those with severe persistent asthma were studied, only those patients with baseline forced expiratory volume in one second (FEV1) less than fifty percent predicted were enrolled in the study.
The heliox delivery system consisted of a facemask connected to a Y-piece with the nebulizer (Airlife™ Misty-Neb™ Nebulizer) on one limb and a non-rebreather bag on the other limb (as shown in FIG. 1). Heliox flow to the nebulizer was set at 10 liters/minute (via an oxygen calibrated flow meter thus equivalent to 18 L/min Heliox flow). A separate flow of 10 liters/minute of heliox (via an oxygen calibrated flow meter thus equivalent to 18 L/min Heliox flow) was delivered to the non-rebreather bag. […] Each treatment continued until the nebulizer was dry—a period of approximately ten minutes, followed by a fifteen minute washout period. The total time for the study was approximately 90 minutes. Corticosteroid therapy for asthma exacerbations was directed by the emergency room physicians, who were not directly involved in the study.
To assure its accuracy for the purpose of this study, the spirometer was tested every other week using a three liter syringe. In addition, the accuracy of FEV, recordings was tested by having subjects perform forced expiratory maneuvers through the portable spirometer at varying flow rates while it was in-line with a Medical Graphics 1070 pulmonary function testing system. (This system was calibrated daily.) This test was also performed every other week for the first three months of the study and monthly thereafter.
Patients performed a minimum of three forced expiratory maneuvers with values recorded according to the American Thoracic Society recommendations (American Thoracic Society: Standardization of spirometry—1994 update, Am. J. Respir. Crit. Care Med. 152:1107-36 (1995)). All spirometric measurements were made by investigators who were blinded to the gas used for albuterol nebulization. […] Patients were not told explicitly which treatment limb they were randomized to; however, because of potential voice changes while breathing heliox, it was not possible to assure that patients were blinded to which therapy they received.
Demographic data, chronic asthma medications, emergency room corticosteroid administration, vital signs (heart rate, mean arterial pressure, respiratory rate), oxygen saturation by pulse oximetry, emergency room length of stay and hospital admissions from the emergency room were recorded for all patients. Data are expressed as mean±SD when normally distributed and median (interquartile range) when not normally distributed. Interval data were compared using a two-tailed Student's t test or Mann Whitney U test according to normality of distribution, categorical data were compared using Chi square or Fisher Exact test when appropriate. […] The Student-Newman-Keuls test was used to compare differences between heliox and control groups after each nebulization treatment when appropriate. […] A 25% difference in percent change in FEV1 between the control and heliox groups was considered clinically important. […]

Take `CC(C)(C)NCC(O)c1ccc(O)c(CO)c1` (stereo not drawn) [albuterol]: the “median percent change in FEV1 from baseline” value by setting is: (control group (nebulized with oxygen 10 L/min), after albuterol treatment 1) 14.6%; (control group (oxygen), after treatment 2) 22.7%; (control group (oxygen), after treatment 3) 26.6%; (heliox group (nebulized with heliox 80:20), after albuterol treatment 1, P=0.007 vs control) 32.4%; (heliox group, after treatment 2, P=0.007 vs control) 51.5%; (heliox group, after treatment 3, P=0.016 vs control) 65.1%.
